The term inhibition denotes the drop in the measured response relative to a control, in per cent. Usually pIC50 stands for the IC50 on a negative log10 scale, so that one unit is a factor of ten.

Assay [1] concerns Botrytis cinerea. Description: Antifungal activity against Botrytis cinerea assessed as inhibition of spore germination at 50 ug/ml after 6 hrs by microscopic analysis relative to control. Format: functional.
For assay [2], the system named is Botrytis cinerea. Nature of the assay: Antifungal activity against Botrytis cinerea assessed as inhibition of mycelium growth at 25 ug/ml after 48 hrs relative to control. Format: functional.
In assay [3] the test system is Botrytis cinerea. Nature of the assay: Antifungal activity against Botrytis cinerea assessed as inhibition of mycelium growth at 5 ug/ml after 48 hrs relative to control. Format: functional.
The nature of assay [4]: Inhibition of mTORC2 in human HeLa cells assessed as decrease in AKT phosphorylation at S473 residue preincubated for 1 hr followed by EGF1 stimulation by ELISA. The assay is classed as cell-based.
The subject of another assay is HeLa. Description: Inhibition of mTORC2 in human HeLa cells assessed as decrease in AKT phosphorylation at S473 residue preincubated for 1 hr followed by EGF1 stimulation after 30 mins by Western blot analysis. The assay is classed as cell-based. A general note: Immunoblotting shows a protein as a band on a membrane.
Assay [5] concerns Botrytis cinerea. Nature of the assay: Antifungal activity against Botrytis cinerea assessed as inhibition of spore germination at 5 ug/ml after 6 hrs by microscopic analysis relative to control. Format: functional.

pIC50: −log10 of the molar value. The source made the active and inactive calls. The rule behind the calls is not given here.

For `C=C(C)n1c(=O)n(C(=O)CCCCCCC)c2cc([N+](=O)[O-])ccc21`, in the assay on Botrytis cinerea [1], the inhibition at 50 µg/mL worked out at 30.7%.

Take `C=C(C)n1c(=O)n(C(C)=O)c2ccc([N+](=O)[O-])cc21`: the inhibition at 25 µg/mL in the assay with Botrytis cinerea [2] was determined as 97.7%. Also, in the assay on Botrytis cinerea [1], the inhibition at 50 µg/mL came out at 100%.

For the compound `C=C(C)n1c(=O)n(C(=O)CCCCCCC)c2ccc([N+](=O)[O-])cc21`, the inhibition at 50 µg/mL in the assay on Botrytis cinerea [1] is 32.5%.

In the case of `C=C(C)n1c(=O)n(C(=O)CCCCCC)c2cc(Br)cnc21`, the inhibition at 25 µg/mL in the assay with Botrytis cinerea [2] stood at 44.9%. Moreover, the inhibition at 50 µg/mL in the assay on Botrytis cinerea [1] was 59.2%.

Turning to `C=C(C)n1c(=O)n(C(=O)c2ccccc2C)c2cc([N+](=O)[O-])ccc21`, the inhibition at 50 µg/mL with Botrytis cinerea [1] turned out to be 60.8%.

Take `C=C(C)n1c(=O)n(C(=O)c2ccccc2Cl)c2ccc([N+](=O)[O-])cc21`: in the assay with Botrytis cinerea [2], the inhibition at 25 µg/mL was 13.6%. For the same compound, in the assay on Botrytis cinerea [1], the inhibition at 50 µg/mL turned out to be 72.1%.

On to `C=C(C)n1c(=O)n(C(=O)CCCCC)c2cc(Br)cnc21`, for which the inhibition at 25 µg/mL in the assay with Botrytis cinerea [2] turned out to be 42.5%. Also, the inhibition at 50 µg/mL with Botrytis cinerea [1] worked out at 23.5%.

In the case of `COC(=O)Nc1nc2ccccc2[nH]1` [CARBENDAZIM], in the assay on Botrytis cinerea [3], the inhibition at 5 µg/mL turned out to be 94.2%.

With `C=C(C)n1c(=O)n(C(=O)CCCC)c2cc(Br)cnc21`, the inhibition at 25 µg/mL in the assay on Botrytis cinerea [2] was found to be 60.1%. Moreover, in the assay with Botrytis cinerea [1], the inhibition at 50 µg/mL stood at 59.2%.

Consider `C=C(C)n1c(=O)n(C(=O)C2CC2)c2cc(Br)cnc21`, for which, in the assay on Botrytis cinerea [2], the inhibition at 25 µg/mL worked out at 92.8%. The inhibition at 50 µg/mL in the assay on Botrytis cinerea [1] is 78.6%.

`C=C(C)n1c(=O)n(C(=O)c2cccc(Cl)c2)c2cc(Br)cnc21`: the inhibition at 25 µg/mL in the assay on Botrytis cinerea [2] came to 55.8%. The inhibition at 50 µg/mL with Botrytis cinerea [1] was 59.2%.

As for `C=C(C)n1c(=O)n(C(=O)CCCC)c2ccc([N+](=O)[O-])cc21`, in the assay with Botrytis cinerea [1], the inhibition at 50 µg/mL amounted to 51.8%.

For the compound `NC1(c2ccc(-c3nc4ccn5c(=O)[nH]nc5c4cc3-c3ccccc3)cc2)CCC1` [MK-2206], in assay [4], the pIC50 is 7.64.

As to `C=C(C)n1c(=O)n(C(=O)c2cccc(Cl)c2)c2ccc([N+](=O)[O-])cc21`, the inhibition at 25 µg/mL in the assay with Botrytis cinerea [2] was found to be 16.7%. In addition, the inhibition at 50 µg/mL in the assay with Botrytis cinerea [1] came out at 86.2%.

Turning to `C=C(C)n1c(=O)n(C(=O)c2ccccc2Cl)c2cc(Br)cnc21`, the inhibition at 25 µg/mL in the assay with Botrytis cinerea [2] was found to be 17.5%. In addition, in the assay on Botrytis cinerea [1], the inhibition at 50 µg/mL came to 13.3%.

Consider `C=C(C)n1c(=O)n(C(=O)c2ccc(Cl)cc2)c2cc(Br)cnc21`, for which the inhibition at 25 µg/mL in the assay with Botrytis cinerea [2] was found to be 54%. Further, in the assay on Botrytis cinerea [1], the inhibition at 50 µg/mL is 28.6%.

On to `C=C(C)n1c(=O)n(C(=O)c2cccc(Cl)c2)c2cc([N+](=O)[O-])ccc21`, for which the inhibition at 25 µg/mL in the assay with Botrytis cinerea [2] came to 10.7%. For the same compound, the inhibition at 50 µg/mL in the assay with Botrytis cinerea [1] stood at 63.4%.

With `C=C(C)n1c(=O)n(C(=O)c2cccc(C)c2)c2ccc([N+](=O)[O-])cc21`, the inhibition at 25 µg/mL in the assay with Botrytis cinerea [2] was 11.4%. Moreover, in the assay with Botrytis cinerea [1], the inhibition at 50 µg/mL was 65.8%.

Regarding `C=C(C)n1c(=O)n(C(=O)c2cccc(C)c2)c2cc([N+](=O)[O-])ccc21`, the inhibition at 50 µg/mL in the assay on Botrytis cinerea [1] came out at 60.2%.

Turning to `C=C(C)n1c(=O)n(C(=O)Cc2ccccc2)c2cc(Br)cnc21`, the inhibition entry with HeLa is “Active”. Also, in the assay with Botrytis cinerea [2], the inhibition at 25 µg/mL turned out to be 66.7%. For the same compound, the inhibition at 50 µg/mL in the assay with Botrytis cinerea [1] was found to be 59.2%.

`CO/C=C(/C(=O)OC)c1ccccc1Oc1cc(Oc2ccccc2C#N)ncn1` [AZOXYSTROBIN]: the inhibition at 5 µg/mL in the assay on Botrytis cinerea [5] turned out to be 92.1%; in the assay on Botrytis cinerea [3], 98.8%.

Turning to `C=C(C)n1c(=O)n(C(=O)c2cccc(C)c2)c2cc(Br)cnc21`, the inhibition at 25 µg/mL with Botrytis cinerea [2] was determined as 41.5%. The inhibition at 50 µg/mL in the assay with Botrytis cinerea [1] is 17.4%.

Take `C=C(C)n1c(=O)n(C(=O)CC)c2cc(Br)cnc21`: the inhibition at 25 µg/mL with Botrytis cinerea [2] was found to be 94.2%. Besides, the inhibition at 50 µg/mL with Botrytis cinerea [1] was determined as 98%.

Turning to `C=C(C)n1c(=O)n(C(=O)CCCCCCC)c2cc(Br)cnc21`, the inhibition at 25 µg/mL in the assay on Botrytis cinerea [2] worked out at 51.3%. Also, the inhibition at 50 µg/mL in the assay with Botrytis cinerea [1] was 49%.

Turning to `C=C(C)n1c(=O)n(C(=O)c2ccccc2C)c2ccc([N+](=O)[O-])cc21`, in the assay on Botrytis cinerea [2], the inhibition at 25 µg/mL came out at 18.5%. Besides, the inhibition at 50 µg/mL in the assay with Botrytis cinerea [1] amounted to 68.3%.

Turning to `C=C(C)n1c(=O)n(C(=O)c2ccccc2)c2cc(Br)cnc21`, the inhibition at 25 µg/mL in the assay with Botrytis cinerea [2] is 37.2%. For the same compound, the inhibition at 50 µg/mL in the assay with Botrytis cinerea [1] was 38.8%.

For the compound `C=C(C)n1c(=O)n(C(=O)CC)c2cc([N+](=O)[O-])ccc21`, the inhibition at 50 µg/mL in the assay on Botrytis cinerea [1] came out at 45.2%.

Consider `C=C(C)n1c(=O)n(C(=O)CCC)c2cc(Br)cnc21`, for which, in the assay with Botrytis cinerea [2], the inhibition at 25 µg/mL stood at 97.3%. For the same compound, in the assay with Botrytis cinerea [1], the inhibition at 50 µg/mL stood at 99%.

For `C=C(C)n1c(=O)n(C(=O)CCCCC)c2ccc([N+](=O)[O-])cc21`, the inhibition at 50 µg/mL in the assay with Botrytis cinerea [1] amounted to 55.9%.

With `C=C(C)n1c(=O)n(C(C)=O)c2cc([N+](=O)[O-])ccc21`, the inhibition at 25 µg/mL in the assay on Botrytis cinerea [2] was 33.5%. The inhibition at 50 µg/mL with Botrytis cinerea [1] turned out to be 85.2%.

Consider `C=C(C)n1c(=O)n(C(=O)CCCC)c2cc([N+](=O)[O-])ccc21`, for which the inhibition at 25 µg/mL in the assay on Botrytis cinerea [2] worked out at 7.26%. Moreover, the inhibition at 50 µg/mL in the assay on Botrytis cinerea [1] was determined as 48.5%.

With `C=C(C)n1c(=O)n(C(=O)CCC)c2ccc([N+](=O)[O-])cc21`, the inhibition at 50 µg/mL in the assay on Botrytis cinerea [1] stood at 52.4%.

`C=C(C)n1c(=O)n(C(=O)c2ccccc2Cl)c2cc([N+](=O)[O-])ccc21`: in the assay on Botrytis cinerea [1], the inhibition at 50 µg/mL was determined as 59.2%.

Regarding `C=C(C)n1c(=O)n(C(=O)c2ccccc2C)c2cc(Br)cnc21`, the inhibition at 25 µg/mL in the assay with Botrytis cinerea [2] was 53.7%. The inhibition at 50 µg/mL with Botrytis cinerea [1] came out at 49%.

In the case of `C=C(C)n1c(=O)n(C(=O)CC)c2ccc([N+](=O)[O-])cc21`, the inhibition at 25 µg/mL in the assay on Botrytis cinerea [2] worked out at 8.72%. For the same compound, the inhibition at 50 µg/mL in the assay on Botrytis cinerea [1] stood at 49.6%.

For `C=C(C)n1c(=O)n(C(=O)CCC)c2cc([N+](=O)[O-])ccc21`, in the assay on Botrytis cinerea [1], the inhibition at 50 µg/mL is 46.7%.

As for `C=C(C)n1c(=O)n(C(=O)CCCCC)c2cc([N+](=O)[O-])ccc21`, the inhibition at 25 µg/mL with Botrytis cinerea [2] came to 5.65%. In addition, in the assay on Botrytis cinerea [1], the inhibition at 50 µg/mL came to 42.9%.

On to `C=C(C)n1c(=O)n(C(=O)CCl)c2cc(Br)cnc21`, for which the inhibition entry in the assay with HeLa is “Active”. Further, the inhibition at 25 µg/mL with Botrytis cinerea [2] worked out at 69%. For the same compound, in the assay on Botrytis cinerea [1], the inhibition at 50 µg/mL turned out to be 74.9%.

The record behind these values is ChEMBL document CHEMBL4177654, “Synthesis, antifungal and antitumor activity of two new types of imidazolin-2-ones” (Bioorg Med Chem, 2017).
